Consider 2 compounds from patent US20260035479A1, “GD2 BI-SPECIFIC INVARIANT NATURAL KILLER T CELL ENGAGERS AND METHODS OF USE THEREOF” (The Children's Hospital of Philadelphia, priority 2022, published 2026).

For one data set, the system named is hepatic iNKTs. The data set is described as follows: Glycolipid antigen-iNKT stimulation in mice, hepatic iNKT cytokine expression by flow cytometry. In kind it is in vivo, C57BL/6 mice. The following applies: for IFN-γ MFI relative to PBS: n=2; for iNKT expression of intracellular IL-4 vs PBS / iNKT expression of surface CD107a vs PBS / expression of IFN-γ in iNKTs: acute stimulation, 4 μg intraperitoneal; for expression of IFN-γ in iNKTs: livers harvested at hour 4, PBS control 10.1%. The procedure:
FIG. 7: iNKT Response to Glycolipid Antigen Stimulation. Two C57BL/6 mice per group were injected with phosphate-buffered saline (PBS), alpha-galactosyl ceramide (a-GalCer), or C34 at hour 0. At hour 4, mice were euthanized, their livers were excised and hepatic lymphocytes isolated and stained for NK1.1+ TCR-β+ mononuclear single cells, and intracellular IFN-γ was assayed by flow cytometry. The IFN-γ positive gate was drawn based on unstained controls. Representative data shown are from one mouse.
FIGS. 8A-8C: Acute and Chronic cytokine expression following GAg-stimulation of iNKTs. Two C57BL/6 mice per group were injected with 4 μg of C34, alpha galactosyl-ceramide (aGC), or Phosphate-Buffered Saline (PBS), in acute or chronic stimulation groups. Hepatic lymphocytes were then isolated and stained for NK1.1, TCR-β, and interferon-gamma (IFN-γ) with intra- and extracellular staining methods. (FIG. 8A) IFN-γ mean fluorescence intensity (MFI) of iNKTs. (FIG. 8B) CD107a MFI of iNKTs. (FIG. 8C) Interleukin-4 MFI of iNKTs.
Glycolipid antigen-iNKT stimulation experiments. C57/BL6 mice were injected with free glycolipid antigen or phosphate-buffered saline (PBS) intraperitoneally at a dose of 4 μg per injection in “acute” and “chronic” exposure situations. In acute stimulation conditions, intraperitoneal injections were given at hour 0, then at hour 4 mice were sacrificed and livers harvested and processed as above. In chronic stimulation conditions, animals received the 4 μg dose of glycolipid antigen days 0, 4, and 7. Livers were then harvested 4 hours after the final intraperitoneal injection and processed as described above. Hepatic mononuclear cells were extracellularly stained with fluorophore-labeled loaded-CD1d tetramer, anti-NK1.1, anti-CD107a, and then fixed and stained intracellularly with anti-IFN-Y, anti-IL-4, anti-TCR-β using a Fixation/Permeabilization kit (BD) and analyzed on FACSVerse flow cytometer (BD).
Data Analysis. Cytokinc expression analysis: FCS files were analyzed using Flowjo (TreeStar) software. Mean fluorescence intensity (MFI) of IFN-γ CD107a, and IL-4 on iNKT cells was compared between PBS, aGC, and C34-stimulated groups using Graphpad (Prism) and compared using Student's t-test between two Groups (ex: PBS vs aGC), and one-way ANOVA for comparison of PBS, aGC, and C34.

For the next data set, the system named is EL4 lymphoma cells. Description: 51Cr-release killing assay of EL4 lymphoma cells with murine hepatic lymphocytes or sorted iNKTs. Format: cell-based. Particulars: for percent specific lysis relative to control: sorted murine iNKTs as effectors, p=0.014 C34 vs control; for percent specific lysis in comparison with control: unsorted hepatic lymphocytes as effectors, 100 ng/mL glycolipid antigen, p=0.0133 C34 vs nothing added. On the procedure: FIGS. 9A-9B: iNKT-mediated cytotoxicity with glycolipid antigen (GAg) stimulation. (FIG. 9A) C57BL/6 hepatic lymphocytes (effectors) were co-cultured for 18 hours with ^51Cr-loaded EL4 lymphoma cells (targets) in triplicates at E:T ratios of 2.5:1, 5:1,10:1, 20:1, and 40:1; these cocultures were stimulated with either alpha galactosyl-ceramide (a-GalCer) or C34 at indicated concentrations or left unstimulated (Nothing added). (FIG. 9B) Similar experiments were performed with flow cytometrically sorted murine hepatic iNKTs as effector populations.
^51Cr Killing Assays. EL4 lymphoma cells were used as targets and were labeled with ^51Cr (Perkin-Elmer) at a ratio of 1 μCi per 1×10^6 cells at 37° C. for 1 hour; excess ^51Cr was removed by extensive washing in RPMI media as described previously (Orange et al., 2022). Murine hepatic iNKT-enriched cell populations and flow cytometrically sorted iNKTs were plated in 96-well round-bottom wells. 2×10^5 target cells were then mixed with these iNKTs in each well at designated effector to target ratios with 100 ng/mL of glycolipid antigen in triplicate. After 16 hours, supernatants from each well were transferred to a Deepwell Lumiplate (Perkin Elmer), dried overnight, and then analyzed by a TopCount gamma radiation detector (Perkin Elmer). Spontaneous release was determined by collecting supernatants from cultures of targets alone, while maximum lysis was measured from the supernatants of target cells that were fully lysed with detergent. Percent specific lysis was calculated by the equation: 100× (sample lysis cpm-spontaneously released cpm)/(maximum cpm-spontaneously released cpm), as described previously (Orange et al., 2022).
^51Cr-release killing assays: Percent specific lysis was calculated as described above and triplicate values were analyzed using Graphpad (Prism). Mean values and standard errors of the mean were calculated. Percent specific lysis among the three groups were compared using one-way ANOVA. Significance was set at p value of <0.05.

Data set [1] deals with patients with advanced solid tumors. Particulars: Giaccone et al., 2002; cited from earlier work.
The test system of the next data set is iNKTs. The following applies: Parekh, 2005; cited from earlier work.
Where [2] appears, read: acute stimulation protocol, p=0.012 aGC vs PBS, p=0.0034 C34 vs PBS.
[3] abbreviates: chronic stimulation protocol, three intraperitoneal injections over 7 days, p=0.0010 for C34.

Consider phenyl α-GalactosylCeramide [C34], for which the “IFN-γ MFI relative to PBS” value in the data set on hepatic iNKTs (setting [2]) was “increased”. In addition, in the data set with hepatic iNKTs, the “iNKT expression of intracellular IL-4 vs PBS” value is recorded as “No significant differences”, the “iNKT expression of surface CD107a vs PBS” value is “No significant differences” and the “expression of IFN-γ in iNKTs” value is on record as 71.4 % of iNKTs. Also, the “IFN-γ MFI relative to PBS” value with hepatic iNKTs (setting [3]) was “greater”. Besides, the “IFN-γ MFI, chronic vs acute group” value with hepatic iNKTs (chronic versus acute stimulation with the same glycolipid) is “not a significant difference”. In the data set on EL4 lymphoma cells, the “percent specific lysis relative to control” value is recorded as “greater” and the “percent specific lysis in comparison with control” value is given as “higher”.
As to `CCCCCCCCCCCCCCCCCCCCCCCCCC(=O)N[C@@H](CO[C@H]1O[C@H](CO)[C@H](O)[C@H](O)[C@H]1O)[C@H](O)[C@H](O)CCCCCCCCCCCCCC` [aGC, α-GalactosylCeramide], in the data set with hepatic iNKTs (setting [2]), the “IFN-γ MFI relative to PBS” value is given as “increased”. Also, in the data set with hepatic iNKTs, the “iNKT expression of intracellular IL-4 vs PBS” value is given as “No significant differences”, the “iNKT expression of surface CD107a vs PBS” value is “No significant differences” and the “expression of IFN-γ in iNKTs” value was 30.4 % of iNKTs. For the same compound, in the data set with hepatic iNKTs (setting [3]), the “IFN-γ MFI relative to PBS” value is reported as “no difference”. In the data set on EL4 lymphoma cells, the “percent specific lysis relative to control” value is “greater” and the “percent specific lysis in comparison with control” value is on record as “higher”. In addition, in data set [1], the disease response result was “without disease response”; the dose-limiting toxicities result is “no dose-limiting toxicities”; the “patients with increased serum GM-CSF and TNF-α” value was 5 of 24. In addition, in the data set with iNKTs, the “duration of iNKT anergy following stimulation” value was “up to 6 months”.
